Source: paper doi:10.1101/2022.12.25.521909v1 (biorxiv, 2022)
pIC50: −log10 of the molar value.

Biological target: T1, human ABCC4 (ABCC4/MRP4) (Homo sapiens, UniProt O15439)
T1 sequence (O15439 1-1325): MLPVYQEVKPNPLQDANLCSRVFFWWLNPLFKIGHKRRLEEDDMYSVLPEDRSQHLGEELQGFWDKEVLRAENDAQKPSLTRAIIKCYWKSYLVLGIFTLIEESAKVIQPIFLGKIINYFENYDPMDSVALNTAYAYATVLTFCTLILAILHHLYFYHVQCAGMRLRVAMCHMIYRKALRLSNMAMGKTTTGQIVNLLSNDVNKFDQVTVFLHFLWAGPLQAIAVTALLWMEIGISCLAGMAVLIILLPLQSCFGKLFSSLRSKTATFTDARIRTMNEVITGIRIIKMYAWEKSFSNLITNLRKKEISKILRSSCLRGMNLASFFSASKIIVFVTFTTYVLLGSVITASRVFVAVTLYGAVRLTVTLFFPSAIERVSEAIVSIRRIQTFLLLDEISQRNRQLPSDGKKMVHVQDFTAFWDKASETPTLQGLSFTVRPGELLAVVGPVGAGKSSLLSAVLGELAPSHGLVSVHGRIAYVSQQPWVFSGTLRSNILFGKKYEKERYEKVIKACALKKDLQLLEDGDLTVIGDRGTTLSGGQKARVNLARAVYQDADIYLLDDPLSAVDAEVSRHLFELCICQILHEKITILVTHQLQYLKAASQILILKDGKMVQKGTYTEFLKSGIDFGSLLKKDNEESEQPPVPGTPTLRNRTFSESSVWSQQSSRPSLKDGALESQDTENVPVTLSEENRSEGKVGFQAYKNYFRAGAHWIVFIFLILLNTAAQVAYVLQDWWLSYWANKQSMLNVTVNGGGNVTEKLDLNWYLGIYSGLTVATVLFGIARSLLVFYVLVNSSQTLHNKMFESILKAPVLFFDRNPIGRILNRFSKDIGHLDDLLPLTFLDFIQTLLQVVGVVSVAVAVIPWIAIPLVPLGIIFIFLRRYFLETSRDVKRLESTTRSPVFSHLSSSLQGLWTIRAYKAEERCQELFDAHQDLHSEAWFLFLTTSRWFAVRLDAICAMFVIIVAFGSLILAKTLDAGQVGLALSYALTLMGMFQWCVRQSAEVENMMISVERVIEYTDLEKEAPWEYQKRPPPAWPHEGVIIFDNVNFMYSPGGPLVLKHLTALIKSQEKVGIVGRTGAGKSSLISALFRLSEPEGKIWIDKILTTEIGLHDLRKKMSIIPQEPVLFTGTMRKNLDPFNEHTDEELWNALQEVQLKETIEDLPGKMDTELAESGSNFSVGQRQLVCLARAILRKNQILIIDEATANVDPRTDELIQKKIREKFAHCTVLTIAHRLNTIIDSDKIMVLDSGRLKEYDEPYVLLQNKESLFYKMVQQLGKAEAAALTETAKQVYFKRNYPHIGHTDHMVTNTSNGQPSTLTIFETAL
Experiment: inhibition of basal ATPase activity, ABCC4 in lipid nanodiscs, logistic fit
Assay type: biochemical

`OCCN(CCO)c1nc(N2CCCCC2)c2nc(N(CCO)CCO)nc(N3CCCCC3)c2n1` [dipyridamole] showed a pIC50 of ~5.68.
